Assay results published in patent US7488751B2, “Antidepressant cycloalkylamine derivatives of 2,3-dihydro-1,4-benzodioxan” (Wyeth, priority 2002, dated 2009).

Columns and labels:
[1] = target: T1, serotonin transporter (Rattus norvegicus, UniProt P31652); assay: 3H-paroxetine displacement, affinity for the serotonin transporter; type: binding; details: displacement of 3H-paroxetine from male rat frontal cortical membranes; read-out: 5-HT Transporter Affinity Ki
T1 construct: displace ^3H-paroxetine from male rat frontal cortical membranes; from tissue; host or cells: male rat frontal cortex membranes
T1 sequence (P31652 whole entry): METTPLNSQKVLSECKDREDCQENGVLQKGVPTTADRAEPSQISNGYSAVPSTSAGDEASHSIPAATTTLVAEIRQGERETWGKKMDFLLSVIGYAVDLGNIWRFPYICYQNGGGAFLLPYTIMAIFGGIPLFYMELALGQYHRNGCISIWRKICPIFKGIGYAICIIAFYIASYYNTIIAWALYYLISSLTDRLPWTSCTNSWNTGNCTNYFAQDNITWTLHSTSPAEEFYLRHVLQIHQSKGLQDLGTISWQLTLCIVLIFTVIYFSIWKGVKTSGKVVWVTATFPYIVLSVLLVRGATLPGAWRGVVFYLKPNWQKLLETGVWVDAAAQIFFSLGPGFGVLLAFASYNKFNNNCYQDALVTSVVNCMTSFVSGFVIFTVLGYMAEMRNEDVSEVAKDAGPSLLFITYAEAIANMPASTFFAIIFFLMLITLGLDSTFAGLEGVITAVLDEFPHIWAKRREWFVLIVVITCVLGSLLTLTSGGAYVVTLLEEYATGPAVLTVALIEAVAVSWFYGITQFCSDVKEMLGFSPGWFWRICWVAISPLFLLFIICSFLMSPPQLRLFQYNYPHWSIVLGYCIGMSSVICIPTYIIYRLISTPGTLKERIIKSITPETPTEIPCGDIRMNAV

[2] = target: T2, human 5-HT1A receptors (Homo sapiens, UniProt P08908); assay: [3H] 8-OHDPAT displacement from the 5-HT1A serotonin receptor (transfected CHO cells); type: binding; details: displacement of [3H] 8-OHDPAT; CHO cells stably transfected with human 5-HT1A receptors; read-out: 5-HT1A Receptor Affinity Ki
T2 construct: expressed in transfected cells; host or cells: CHO cells (stably transfected)
T2 sequence (P08908 1-422): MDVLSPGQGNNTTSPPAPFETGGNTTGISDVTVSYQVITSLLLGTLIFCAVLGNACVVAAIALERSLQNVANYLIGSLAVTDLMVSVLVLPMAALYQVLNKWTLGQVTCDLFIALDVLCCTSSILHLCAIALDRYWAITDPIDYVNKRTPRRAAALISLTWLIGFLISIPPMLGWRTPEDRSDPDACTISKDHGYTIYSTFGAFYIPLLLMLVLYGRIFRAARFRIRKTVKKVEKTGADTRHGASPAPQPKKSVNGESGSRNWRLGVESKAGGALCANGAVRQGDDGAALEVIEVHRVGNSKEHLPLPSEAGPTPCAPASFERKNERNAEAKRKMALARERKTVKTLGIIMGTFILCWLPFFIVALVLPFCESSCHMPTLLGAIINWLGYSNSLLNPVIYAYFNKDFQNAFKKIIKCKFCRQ
Source text: High affinity for the serotonin 5-HT1A receptor was established by testing the claimed compound's ability to displace [^3H] 8-OHDPAT (dipropylaminotetralin) from the 5-HT1A serotonin receptor following a modification of the procedure of Hall et al., J. Neurochem. 44, 1685 (1985) which utilizes CHO cells stably transfected with human 5-HT1A receptors.

[3] = target: T3, cloned human 5-HT1A receptors (Homo sapiens, UniProt P08908); assay: 35S-GTPγS binding assay, 5-HT1A function; type: biochemical; details: for IC50: antagonist potency, reversal of effects of standard agonist 8-OHDPAT on 35S-GTPγS binding; for 5-HT1A Function (Imax): maximum inhibitory effect, 35S-GTPγS binding, reversal of 8-OHDPAT, unit assumed
T3 construct: expressed in transfected cells
T3 sequence (P08908 1-422): T2 sequence (P08908 1-422)
Procedure: Antagonist activity at 5-HT1A receptors was established by using a ^35S-GTPγS binding assay similar to that used by Lazareno and Birdsall (Br. J. Pharmacol. 109: 1120, 1993), in which the test compound's ability to affect the binding of ^35S-GTPγS to membranes containing cloned human 5-HT1A receptors was determined. Agonists produce an increase in binding whereas antagonists produce no increase but rather reverse the effects of the standard agonist 8-OHDPAT. The test compound's maximum inhibitory effect is represented as the Imax, while its potency is defined by the IC50.

[4] = target: T3, cloned human 5-HT1A receptors; assay: 35S-GTPγS binding assay, 5-HT1A function; type: biochemical

Row | Ki [1] | Ki [2] | IC50 [3] | 5-HT1A Function (Imax) [3] | EC50 ([4]; given as EC50) | Emax ([4]; given as Emax) | SMILES
1 | 1.28 nM | 7.52 nM | 30 nM | 78% | – | – | COc1cccc2c1O[C@@H](CN[C@@H]1CC[C@H](c3c[nH]c4ccc(F)cc34)C1)CO2 (single isomer, unassigned) [Example 1-Isomer A, N-[(1R*,3S*)-3-(5-fluoro-1H-indol-3-yl)cyclopentyl]-N-{[(2S)-8-methoxy-2,3-dihydro-1,4-benzodioxin-2-yl]methyl}amine]
2 | 0.8 nM | 2.05 nM | 76 nM | 32% | – | – | COc1cccc2c1O[C@@H](CN[C@@H]1CC[C@@H](c3c[nH]c4ccc(F)cc34)C1)CO2 (single isomer, unassigned) [Example 2-Isomer B, N-[(1R*,3R*)-3-(5-fluoro-1H-indol-3-yl)cyclopentyl]-N-{[(2S)-8-methoxy-2,3-dihydro-1,4-benzodioxin-2-yl]methyl}amine]
3 | 0.64 nM | 5.29 nM | – | – | – | – | COc1cccc2c1O[C@@H](CN[C@@H]1CC[C@H](c3c[nH]c4ccc(C#N)cc34)C1)CO2 (single isomer, unassigned) [Example 7-Isomer A]
4 | 12 nM | 10.8 nM | 152 nM | 64% | – | – | COc1cccc2c1O[C@@H](CN[C@H]1CC[C@@H](c3cn(C)c4ccc(F)cc34)C1)CO2 (mixture of isomers) [Example 3, N-[(cis)-3-(5-fluoro-1-methyl-1H-indol-3-yl)cyclopentyl]-N-{[(2S)-8-methoxy-2,3-dihydro-1,4-benzodioxin-2-yl]methyl}amine]
5 | 1 nM | 23.6 nM | 375 nM | 84% | – | – | COc1cccc2c1O[C@@H](CN[C@H]1CC[C@H](c3c[nH]c4ccc(F)cc34)C1)CO2 (single isomer, unassigned) [Example 2-Isomer A, N-[(1S*,3S*)-3-(5-fluoro-1H-indol-3-yl)cyclopentyl]-N-{[(2S)-8-methoxy-2,3-dihydro-1,4-benzodioxin-2-yl]methyl}amine]
6 | 3.86 nM | 3.02 nM | 53 nM | 79% | – | – | COc1cccc2c1O[C@@H](CN[C@H]1CC[C@H](c3cn(C)c4ccc(F)cc34)C1)CO2 (mixture of isomers) [Example 4, N-[(trans)-3-(5-fluoro-1-methyl-1H-indol-3-yl)cyclopentyl]-N-{[(2S)-8-methoxy-2,3-dihydro-1,4-benzodioxin-2-yl]methyl}amine]
7 | 0.6 nM | 14.5 nM | 7 nM | 99% | – | – | COc1cccc2c1O[C@@H](CN[C@H]1CC[C@H](c3c[nH]c4ccc(F)cc34)C1)CO2 (mixture of isomers) [Example 2, N-[(trans)-3-(5-fluoro-1H-indol-3-yl)cyclopentyl]-N-{[(2S)-8-methoxy-2,3 dihydro-1,4-benzodioxin-2-yl]methyl}amine]
8 | 1.92 nM | 3.61 nM | 22 nM | 100% | – | – | COc1cccc2c1O[C@@H](CN[C@H]1CC[C@@H](c3c[nH]c4ccc(F)cc34)C1)CO2 (single isomer, unassigned) [Example 1-Isomer B, N-[(1S*,3R*)-3-(5-fluoro-1H-indol-3-yl)cyclopentyl]-N-{[(2S)-8-methoxy-2,3-dihydro-1,4-benzodioxin-2-yl]methyl}amine]
9 | 1.07 nM | 5.82 nM | 55 nM | 100% | – | – | COc1cccc2c1OC(CNC1CCC(c3c[nH]c4ccc(F)cc34)C1)CO2 [Example 1, N-[(cis)-3-(5-fluoro-1H-indol-3-yl)cyclopentyl]-N-{([(2S)-8-methoxy-2,3-dihydro-1,4-benzodioxin-2-yl]methyl}amine]
10 | 0.43 nM | 25.2 nM | 359 nM | 25% | – | – | CCOc1cccc2c1O[C@@H](CN[C@H]1CC[C@H](c3c[nH]c4ccc(F)cc34)C1)CO2 (mixture of isomers) [Example 6, N-{[(2S)-8-ethoxy-2,3-dihydro-1,4-benzodioxin-2-yl]methyl}-N-[(trans)-3-(5-fluoro-1H-indol-3-yl)cyclopentyl]amine]
11 | 0.57 nM | 9.62 nM | 24 nM | 56% | – | – | COc1cccc2c1O[C@@H](CN[C@H]1CC[C@H](c3c[nH]c4ccc(C#N)cc34)C1)CO2 (single isomer, unassigned) [Example 7-Isomer B]
12 | 8 nM | 25.5 nM | – | – | – | – | COc1cccc2c1O[C@@H](CN[C@H]1CC[C@H](c3cn(C)c4ccc(C#N)cc34)C1)CO2 (single isomer, unassigned) [Example 8-Isomer B]
13 | 6 nM | 12.6 nM | – | – | 23 nM | 64% | COc1cccc2c1O[C@@H](CN[C@@H]1CC[C@H](c3cn(C)c4ccc(C#N)cc34)C1)CO2 (single isomer, unassigned) [Example 8-Isomer A]
14 | 0.6 nM | 8.09 nM | 105 nM | 48% | – | – | CCOc1cccc2c1O[C@@H](CN[C@H]1CC[C@@H](c3c[nH]c4ccc(F)cc34)C1)CO2 (mixture of isomers) [Example 5, N-{[(2S)-8-ethoxy-2,3-dihydro-1,4-benzodioxin-2-yl]methyl}-N-[(cis)-3-(5-fluoro-1H-indol-3-yl)cyclopentyl]amine]
